Measurements reported in patent US7696174B2, “Short bio-active peptides for cellular and immunological modulation” (Helix Biomedix, Inc., priority 2007, dated 2010).
“Also recorded” adds a separate entry of the source. Like-named read-outs stand apart in the source and are kept apart here.

Legend:
[1] = tested on: PAM 212 murine epidermal keratinocyte; experiment: Cell proliferation assay, PAM 212 murine epidermal keratinocytes; format: cell-based; conditions: for cell proliferation as a percent of control cell proliferation: control = cells treated with PBS only; for cell proliferation activity (in words): epidermal keratinocytes
Description: To examine this question, an overlapping set of peptide fragments of HB-107 was generated using standard solid phase peptide chemistry. These peptides were then assayed for cell proliferation activity at concentrations of 0.22, 2.15, 21.5 and 46.4 μg/mL.
The cell proliferation assays proceeded from the following experimental protocol:
Cell Proliferation Assay Using a Mouse Keratinocyte Cell Line.
OBJECTIVE: To determine the anti-proliferative or cytotoxic potential of a test article when applied to epidermal keratinocytes in culture.
TEST SYSTEM: Either the murine keratinocyte cell line PAM212 or primary Normal Human Epidermal Keratinocytes (NHEK, from Clonetics) are preferred models, although other cells may be used.
Keratinocytes are examined microscopically daily. As the culture becomes 50-75% confluent, the media in the plate is aspirated and 0.25% trypsin/EDTA is added (0.05% trypsin for human cells). When the cells become rounded, the trypsin is neutralized by addition of an equal volume of DMEM or KBM supplemented with approximately 10% bovine serum or by using trypsin neutralizing solution (TNS, from Clonetics). Cells are then centrifuged and the pellet is resuspended in 1 ml of DMEM-1 or KBM. A hemacytometer is used to count the cell suspension and the total number of cells/mL is adjusted to 1.5-2.5×10^4 cells/mL with DMEM-1 or KBM. Cells are then plated in 96-well plates at a concentration of 3.0-5.0×10^3 cells/well by adding 200 μL of the cell suspension to each well. Typically, the central 60 wells are used and the outer wells are filled with DMEM or PBS to minimize evaporation effects.
A stock solution of the test article is prepared using DMEM-1 or KBM, and all other dilutions are henceforth prepared from this solution. Typically, each dilution is filtered through an 0.2-μm filter before application to the cell culture. A 1.0% (w/v or v/v) solution or suspension is prepared, and 10-fold or 3-fold serial dilutions are made in culture medium.
The cells are examined 18-24 hours after plating to ensure cell attachment and division, and then 100 μL of the media is aspirated, leaving behind 100 μL in each well. Then 100 μL of a 2× concentration of each test article dilution is added to the replicate wells. For the negative control, 100 μL of the vehicle media (DMEM-1 or KBM) is added to the control wells. The microplate is then incubated at 37 degrees C. and 5.0% CO2 for 48-72 hours after dosing, and cells are allowed to proliferate undisturbed. Following this 48-72 hour exposure, all media is aspirated and proliferation is assessed by one of the below methods.
Option A: neutral red uptake. After exposure and aspiration of media, 200 μL of neutral red media is immediately added to each well. The microplate is returned to the incubator for an additional three hours. Following this dye uptake period, the microplate is removed from the incubator and gently inverted, and the neutral red media is decanted into a collection pan. The cells are then fixed with fixing solution for approximately one minute. The fixing solution is decanted off, and the microplate is washed gently three times with washing solution. The washing solution is decanted, and 200 μL of lysing solution is added. After at least 15 minutes, the contents of each well are re-pipetted to ensure even color distribution in each well, and an aliquot is read on the spectrophotometer as detailed below.
Option B: MTT conversion assay. After exposure and aspiration of media, 200 μL of MTT assay media is immediately added to each well. […] The microplate is returned to the incubator for an additional three hours. Following this dye uptake period, the microplate is removed from the incubator and gently inverted, and the MTT media is decanted into a collection pan. The cells are then washed gently three times with washing solution. The washing solution is decanted, and 200 μL of lysing solution is added. […]

[2] = tested on: IL6 expression in epithelial cells; experiment: Repression of IL6 expression in resting epithelial cells; format: cell-based; conditions: for % Change in IL6 expression / Change in IL6 versus PBS control: 20 μg/mL peptide
Source text: The protocol for this assay is standard and described by Murakami et al. (2004, J. Immunol. 172:[…]), the article of which is incorporated herein by reference in its entirety.

[3] = 24 hr after addition of 20 μg/mL peptide
[4] = 48 hr after addition of 20 μg/mL peptide

Substance	cell proliferation as a percent of control cell proliferation ([1]; 0.22 μg/mL peptide)	cell proliferation as a percent of control cell proliferation ([1]; 2.15 μg/mL peptide)	cell proliferation as a percent of control cell proliferation ([1]; 21.5 μg/mL peptide)	cell proliferation as a percent of control cell proliferation ([1]; 46.4 μg/mL peptide)	other results
EKMGRNIRN (listed as Hyalophora cecropia) [HB-1059, fragment of HB-107]	95%	128%	162%	186%	cell proliferation activity (in words) ([1]; listed as SEQ ID NO:2): strongest proliferative activity; also recorded: can induce cell proliferation
KEKVFLKIE (listed as Hyalophora cecropia) [HB-1076, fragment of HB-107]	–	–	–	–	IL6 reduction / anti-inflammatory activity in resting cells (in words) [2]: decrease the level of IL6 expression to the same degree as the HB-107 parent peptide; amount of IL6, Average [2, 3]: 266.7 pg/mL; amount of IL6, Well 1 [2, 3]: 278.32 pg/mL; amount of IL6, Well 2 [2, 3]: 255.08 pg/mL; % Change in IL6 expression ([2]; 24 hr): −17.60%; Change in IL6 versus PBS control ([2]; 24 hr): −56.8; amount of IL6, Average [2, 4]: 727.59 pg/mL; amount of IL6, Well 1 [2, 4]: 726.73 pg/mL; amount of IL6, Well 2 [2, 4]: 728.45 pg/mL; % Change in IL6 expression ([2]; 48 hr): −25.40%; Change in IL6 versus PBS control ([2]; 48 hr): −247.445; IL6 reduction / anti-inflammatory activity in resting cells (in words) ([2]; listed as SEQ ID NO:8): having anti-inflammatory activity
KIEKMGRNIRN (listed as Hyalophora cecropia) [HB-1057, fragment of HB-107]	121%	118%	171%	167%	cell proliferation activity (in words) ([1]; listed as 9): strongest proliferative activity; cell proliferation activity (in words) ([1]; listed as SEQ ID NO:9): can induce cell proliferation
KMGRNIRN (listed as Hyalophora cecropia) [HB-1060, fragment of HB-107]	57%	52%	90%	83%	–
LKIEKMGRNIRN (listed as Hyalophora cecropia) [HB-1056, fragment of HB-107]	48%	39%	64%	97%	–
MPKEKVFLKIEKMG (listed as Hyalophora cecropia) [HB-912, fragment of HB-107]	100%	84%	125%	137%	cell proliferation activity (in words) [1]: can induce cell proliferation
VFLKIEK (listed as Hyalophora cecropia) [HB-1074, fragment of HB-107]	97%	93%	120%	149%	cell proliferation activity (in words) [1]: can induce cell proliferation
VFLKIEKMG (listed as Hyalophora cecropia) [HB-1071, fragment of HB-107]	106%	127%	188%	155%	cell proliferation activity (in words) ([1]; listed as 5): strongest proliferative activity; cell proliferation activity (in words) ([1]; listed as SEQ ID NO:5): can induce cell proliferation
